What all share (format): functional
Test [1] deals with Rattus norvegicus. Put plainly: Analgesic activity in po dosed rat assessed as reduction in acetic acid-induced writhings by measuring combination ED50 co-administered with COX2 inhibitor rofecoxib pretreated for 30 mins followed by acetic acid challenge measured after 10 to 35 mins by writhing test.
Test [2] has as its system Rattus norvegicus. Put plainly: Analgesic activity in po dosed formalin-induced chronic pain rat model assessed as reduction in behavioural change by measuring combination ED50 co-administered with COX2 inhibitor celecoxib measured up to 60 mins by formalin test. Particulars: 1 h.
Test [3] concerns Rattus norvegicus. Put plainly: Analgesic activity in rat assessed as reduction in baking yeast suspension-induced hind paw oedema at 31 mg/kg, po by measuring combination effect co-administered with 215 mg/kg COX2 inhibitor rofecoxib (vioxx) by Randall-selitto test relative to control. Details: scale not given: the % may be the effect or the level left.
The subject of test [4] is Rattus norvegicus. In words: Analgesic activity in rat assessed as reduction in baking yeast suspension-induced hind paw oedema by measuring combination effect at 31 mg/kg, po coadministered with 215 mg/kg COX2 inhibitor rofecoxib (vioxx) 1 hr prior to compound addition by Randall-selitto test relative to control. On the set-up: scale not given: the % may be the effect or the level left.

The subject of test [5] is Rattus norvegicus. In words: Analgesic activity in rat assessed as reduction in baking yeast suspension-induced hind paw oedema by measuring combination effect at 46 mg/kg, po coadministered with 215 mg/kg COX2 inhibitor rofecoxib (vioxx) 1 hr prior to compound addition by Randall-selitto test relative to control. On the set-up: scale not given: the % may be the effect or the level left.

The subject of test [6] is Rattus norvegicus. In words: Analgesic activity in rat assessed as reduction in baking yeast suspension-induced hind paw oedema by measuring combination effect at 31 mg/kg, po co-administered with 215 mg/kg COX2 inhibitor celecoxib (celebrex) by Randall-selitto test relative to control. On the set-up: scale not given: the % may be the effect or the level left.
Test [7] has as its system Rattus norvegicus. Put plainly: Analgesic activity in rat assessed as reduction in baking yeast suspension-induced hind paw oedema by measuring combination effect at 46 mg/kg, po co-administered with 215 mg/kg COX2 inhibitor celecoxib (celebrex) by Randall-selitto test relative to control. On the set-up: scale not given: the % may be the effect or the level left.
Test [8] concerns Rattus norvegicus. In words: Analgesic activity in rat assessed as reduction in baking yeast suspension-induced hind paw oedema at 31 mg/kg, po by measuring combination effect co-administered with 215 mg/kg COX2 inhibitor celecoxib by Randall-selitto test relative to control. Details: scale not given: the % may be the effect or the level left.
Test [9] relates to Rattus norvegicus. In words: Analgesic activity in rat assessed as reduction in baking yeast suspension-induced hind paw oedema by measuring combination effect at 21.5 mg/kg, po co-administered with 215 mg/kg COX2 inhibitor celecoxib (celebrex) 1 hr prior to compound addition by Randall-selitto test relative to control. Details: scale not given: the % may be the effect or the level left.

The subject of test [10] is Rattus norvegicus. In words: Analgesic activity in rat assessed as reduction in baking yeast suspension-induced hind paw oedema at 215 mg/kg, po pretreated for 1 hr followed by 31 mg/kg (1R,2R)-3-(3-dimethylamino-l-ethyl-2-methyl-propyl)-phenol; hydrochloride addition by Randall-selitto test relative to control. On the set-up: scale not given: the % may be the effect or the level left.

Test [11] relates to Rattus norvegicus. In words: Analgesic activity in rat assessed as reduction in baking yeast suspension-induced hind paw oedema at 215 mg/kg, po pretreated for 1 hr followed by 46 mg/kg (1R,2R)-3-(3-dimethylamino-l-ethyl-2-methyl-propyl)-phenol; hydrochloride addition by Randall-selitto test relative to control. On the set-up: scale not given: the % may be the effect or the level left.

For test [12], the system named is Rattus norvegicus. In words: Analgesic activity in rat assessed as reduction in baking yeast suspension-induced hind paw oedema at 215 mg/kg, po pretreated for 1 hr followed by 68.1 mg/kg (1RS,3RS,6RS)-6-dimethylaminomethyl-1-(3-[methoxy-phenyl)-cyclohexane-1,3-diol;hydrochloride addition measured after 15 to 75 mins by Randall-selitto test relative to control. On the set-up: scale not given: the % may be the effect or the level left.

For test [13], the system named is Rattus norvegicus. In words: Analgesic activity in rat assessed as reduction in baking yeast suspension-induced hind paw oedema at 215 mg/kg, po pretreated for 1 hr followed by 46.4 mg/kg ((1R,2R)-3-(2-dimethylaminomethyl-cyclohexyl)-phenol;1 hydrochloride addition by Randall-selitto test relative to control. Details: scale not given: the % may be the effect or the level left.

Test [14] concerns Rattus norvegicus. In words: Analgesic activity in rat assessed as reduction in baking yeast suspension-induced hind paw oedema at 215 mg/kg, po pretreated for 1 hr followed by 21.5 mg/kg (1S,2S)-3-(3-dimethylamino-l-ethyl-2-methyl-propyl)-phenol;hydrochloride addition by Randall-selitto test relative to control. Details: scale not given: the % may be the effect or the level left.

Test [15] relates to Rattus norvegicus. In words: Analgesic activity in rat assessed as reduction in baking yeast suspension-induced hind paw oedema at 215 mg/kg, po pretreated for 1 hr followed by 68.1 mg/kg (1RS,3RS,6RS)-6-dimethylaminomethyl-1-(3-[methoxy-phenyl)-cyclohexane-1,3-diol;hydrochloride addition measured after 75 to 90 mins by Randall-selitto test relative to control. On the set-up: scale not given: the % may be the effect or the level left.

Test [16] deals with Rattus norvegicus. Put plainly: Analgesic activity in rat assessed as reduction in baking yeast suspension-induced hind paw oedema by measuring combination effect at 68.1 mg/kg, po coadministered with 215 mg/kg COX2 inhibitor celecoxib (celebrex) 1 hr prior to compound addition measured after 15 to 75 mins by Randall-selitto test relative to control. On the set-up: scale not given: the % may be the effect or the level left.

Test [17] has as its system Rattus norvegicus. In words: Analgesic activity in rat assessed as reduction in baking yeast suspension-induced hind paw oedema by measuring combination effect at 68.1 mg/kg, po coadministered with 215 mg/kg COX2 inhibitor celecoxib (celebrex) 1 hr prior to compound addition measured after 75 to 90 mins by Randall-selitto test relative to control. Details: scale not given: the % may be the effect or the level left.

Test [18] relates to Rattus norvegicus. Put plainly: Analgesic activity in rat assessed as reduction in baking yeast suspension-induced hind paw oedema at 215 mg/kg, po co-administered with 31 mg/kg (1R,2R)-3-(3-dimethylamino-l-ethyl-2-methyl-propyl)-phenol; hydrochloride by Randall-selitto test relative to control. Details: scale not given: the % may be the effect or the level left.
The subject of test [19] is Rattus norvegicus. Put plainly: Analgesic activity in rat assessed as reduction in baking yeast suspension-induced hind paw oedema by measuring combination effect at 46.4 mg/kg, po co-administered with 215 mg/kg COX2 inhibitor celecoxib (celebrex) 1 hr prior to compound addition by Randall-selitto test relative to control. On the set-up: scale not given: the % may be the effect or the level left.

Molecules are shown by their SMILES.

By ED50 is commonly meant the dose that gives a 50% effect, or the effect in half of the subjects. Turning to `CC[C@@H](c1cccc(O)c1)[C@@H](C)CN(C)C.Cl` [TAPENTADOL HYDROCHLORIDE], the ED50 came to 23.3 mg/kg in test [1] and 60.6 mg/kg in [2]. The Activity in test [3] is listed as 29.7%; in test [4], 45.7%; in test [5] it was 59.8%; in [6] it was 60.9%; in [7], 86.1%; in [8], 29.6%.
`CC[C@H](c1cccc(O)c1)[C@H](C)CN(C)C.Cl`: the Activity in [9] came out at 96.4%.
For the compound `Cc1ccc(-c2cc(C(F)(F)F)nn2-c2ccc(S(N)(=O)=O)cc2)cc1` [CELECOXIB], the Activity is 17.3% in [10]; 17.3% in [11]; 16.7% in [12]; 8.9% in test [13]; 8.9% in test [14]; 8% in test [15].
For `COc1cccc([C@@]2(O)C[C@H](O)CC[C@@H]2CN(C)C)c1.Cl` (racemic), the Activity is reported as 109.3% in [16] and 68.5% in test [17].
Consider `CS(=O)(=O)c1ccc(C2=C(c3ccccc3)C(=O)OC2)cc1` [ROFECOXIB], for which the results for the Activity in test [18], in test [10] and in test [11] were 11.2%, 13% and 13%, respectively.
Regarding `CN(C)C[C@@H]1CCCC[C@H]1c1cccc(O)c1.Cl`, the Activity in test [19] came out at 84.1%.

(Values after ChEMBL document CHEMBL3882387, “Combination of selected analgesics and COX-II inhibitors” (2005).)
